Measurements published in publication PMC12361511 (The EMBO Journal, 2025).
pIC50: −log10 of the molar value.

Experiments:
KPNB1.1 [1] = target: T1, KPNB1.1 (Homo sapiens, UniProt Q14974); test: thermal shift (DSF, SYPRO Orange); format: binding; conditions: 5 µM protein, 10 mM NaH2PO4 pH 6.0, 25 mM NaCl, 1 mM β-mercaptoethanol; destabilising
T1 construct: amino acids 1-442 (N-terminal half), N-terminal 10xHis, codon-optimized, E. coli, about 44 kDa

PPP2R1A [2] = target: T2, PPP2R1A (Mus musculus, UniProt Q76MZ3); test: thermal shift (DSF, SYPRO Orange); format: binding; conditions: 5 µM protein, 10 mM NaH2PO4 pH 6.0, 25 mM NaCl, 1 mM β-mercaptoethanol; destabilising
T2 construct: full length, C-terminal 6xHis, E. coli (BL-21 or Arctic Express), about 65 kDa, isolated subunit; 893-PAL is the native protein in mouse FL5.12 / mPCE cells

KPNB1.1 [3] = target: T1, KPNB1.1; test: thermal shift (DSF, SYPRO Orange); also CD; format: binding; conditions: 5 µM protein, 10 mM NaH2PO4 pH 6.0, 25 mM NaCl, 1 mM β-mercaptoethanol; destabilising, reversible on dialysis
PPP2R1A [4] = target: T2, PPP2R1A; test: thermal shift (DSF, SYPRO Orange); also CD; format: binding; conditions: 5 µM protein, 10 mM NaH2PO4 pH 6.0, 25 mM NaCl, 1 mM β-mercaptoethanol; destabilising, reversible on dialysis
FL5.12 = test: cells; design: cytotoxicity / viability IC50 in FL5.12 cells at 48 h; conditions: Mus musculus, FL5.12, 48 h

T1 sequence (Q14974 1-442): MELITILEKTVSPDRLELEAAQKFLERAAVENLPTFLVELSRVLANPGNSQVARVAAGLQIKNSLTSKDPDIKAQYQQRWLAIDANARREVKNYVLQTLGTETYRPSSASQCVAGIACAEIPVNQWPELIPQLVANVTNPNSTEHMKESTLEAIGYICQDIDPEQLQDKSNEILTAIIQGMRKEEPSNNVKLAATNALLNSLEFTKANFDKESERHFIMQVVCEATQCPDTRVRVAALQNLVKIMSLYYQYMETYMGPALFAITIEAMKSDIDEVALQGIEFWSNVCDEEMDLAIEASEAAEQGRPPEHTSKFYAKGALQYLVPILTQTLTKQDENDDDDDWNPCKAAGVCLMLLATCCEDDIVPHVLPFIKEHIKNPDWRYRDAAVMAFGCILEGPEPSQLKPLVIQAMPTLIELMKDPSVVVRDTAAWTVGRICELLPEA
T2 sequence (Q76MZ3 2-589): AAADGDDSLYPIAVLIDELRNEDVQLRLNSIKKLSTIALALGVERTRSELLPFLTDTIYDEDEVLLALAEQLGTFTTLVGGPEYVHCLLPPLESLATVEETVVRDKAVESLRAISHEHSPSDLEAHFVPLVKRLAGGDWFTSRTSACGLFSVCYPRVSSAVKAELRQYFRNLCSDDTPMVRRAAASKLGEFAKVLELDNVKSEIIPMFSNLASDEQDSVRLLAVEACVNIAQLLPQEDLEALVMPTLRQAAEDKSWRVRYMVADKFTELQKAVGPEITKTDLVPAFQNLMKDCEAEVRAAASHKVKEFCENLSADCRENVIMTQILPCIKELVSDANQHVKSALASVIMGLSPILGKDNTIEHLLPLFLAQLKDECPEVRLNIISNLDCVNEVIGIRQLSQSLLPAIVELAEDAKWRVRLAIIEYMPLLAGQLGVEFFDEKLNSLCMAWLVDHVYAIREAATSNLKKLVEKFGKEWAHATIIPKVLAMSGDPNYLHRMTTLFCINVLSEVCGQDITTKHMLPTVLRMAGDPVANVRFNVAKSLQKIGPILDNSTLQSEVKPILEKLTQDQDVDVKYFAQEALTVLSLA

Compound | dTm (KPNB1.1 [1]) | dTm (PPP2R1A [2]) | dTm (KPNB1.1 [3]) | dTm (PPP2R1A [4]) | pIC50 (FL5.12)
CCCCCCCCc1ccc(CCC(N)(CO)CO)cc1 [FTY720] | SH-BC-893, FTY720, and the natural sphingolipid phytosphingosine reduced rather than increased the Tm of both | SH-BC-893, FTY720, and the natural sphingolipid phytosphingosine reduced rather than increased the Tm of both | – | – | –
CCCCCCCCc1ccc([C@H]2CCN[C@@H]2CO)cc1 [SH-BC-893] | – | – | SH-BC-893, FTY720, and the natural sphingolipid phytosphingosine reduced rather than increased the Tm of both | SH-BC-893, FTY720, and the natural sphingolipid phytosphingosine reduced rather than increased the Tm of both | 5.70
CCCCCCCCCCCCC/C=C/[C@@H](O)[C@H](CO)N(C)C [dimethylsphingosine] | safingol and dimethylsphingosine (DMS) induced conformational changes in PPP2R1A and KPNB1 | safingol and dimethylsphingosine (DMS) induced conformational changes in PPP2R1A and KPNB1 | – | – | –
CCCCCCCCCCCCCC[C@@H](O)[C@@H](O)[C@@H](N)CO [phytosphingosine] | SH-BC-893, FTY720, and the natural sphingolipid phytosphingosine reduced rather than increased the Tm of both | SH-BC-893, FTY720, and the natural sphingolipid phytosphingosine reduced rather than increased the Tm of both | – | – | 5.49
CCCCCCCCCCCCCCC[C@H](O)[C@@H](N)CO [safingol] | safingol and dimethylsphingosine (DMS) induced conformational changes in PPP2R1A and KPNB1 | safingol and dimethylsphingosine (DMS) induced conformational changes in PPP2R1A and KPNB1 | – | – | –
CCCCCCCCCCCCC/C=C/[C@@H](O)[C@@H](N)CO [sphingosine] | sphingosine triggered conformational changes in both PPP2R1A and KPNB1 | sphingosine triggered conformational changes in both PPP2R1A and KPNB1 | – | – | –
